Values of other authors, collected in US20070106232A1, “METHOD AND APPARATUS FOR EXTENDING FEEDING TUBE LONGEVITY” (priority 2003, published 2007).
Numbered stars: 1 amine (or outer) side, 2 acyl side, 3 side chain; on linkers, the order of the positions; unused ones are H or OH. Bridge positions count the residues as written; N and C are the ends. Square brackets hold non-standard residues; d marks the D form. Peptide text beside a SMILES is read from it. * marks the point of attachment. hTyr(3S-OH,4S-OH,3'-OSO3H) = N[C@H](C(=O)O)[C@H](O)[C@@H](O)c1ccc(O)c(OS(=O)(=O)O)c1; Orn(4R-OH,5R-OH) = O=C([C@H](C[C@@H](O)[C@@H](O)N[*:3])N[*:1])[*:2]; Pro(3S-OH,4S-Me) = C[C@H]1CN[C@H](C(=O)O)[C@H]1O; X1 = CCCCCOc1ccc(-c2cc(-c3ccc(C(=O)*)cc3)no2)cc1; Gln(3R-OH) = NC(=O)C[C@@H](O)[C@H](N)C(=O)O; Hyp = O=C(O)[C@@H]1C[C@@H](O)CN1

Assays:
[1] = tested on: Candida albicans and Candida parapsilosis biofilms
[2] = tested on: feeding tube colonized with Candida; conditions: nystatin suspension 500,000 units/5 mL in the off cycle; amphotericin B 1 mg/10 mL for one week; tube lumen filled
[3] = tested on: yeast crust on inner surface of the tube; conditions: segments incubated in vitro overnight, endoscopic brush next day
[4] = tested on: Candida albicans biofilms; conditions: preformed Candida albicans biofilms; physiological concentrations; time-kill
[5] = tested on: Candida albicans biofilms
[6] = tested on: Candida spp.; conditions: including azole-resistant (Candida krusei), less susceptible (C. dubliniensis, C. glabrata) or amphotericin B resistant isolates
[7] = tested on: fungal colonization of feeding tubes; conditions: pre-procedural preparation of the oropharynx, 1%

In the case of C[C@@H]1[C@H](O)[C@@H](C)/C=C/C=C/C=C/C=C/C=C/C=C/C=C/[C@H](O[C@@H]2O[C@H](C)[C@@H](O)[C@H](N)[C@@H]2O)C[C@@H]2O[C@](O)(C[C@@H](O)C[C@@H](O)[C@H](O)CC[C@@H](O)C[C@@H](O)CC(=O)O[C@H]1C)C[C@H](O)[C@H]2C(=O)O [amphotericin B], the “activity against Candida biofilms” value [1] is given as “resistant”, the “clearing of a feeding tube colonized with Candida” value [2] is given as “unsuccessful” and the “clearing the yeast crust from the inner surface of the tube” value [3] is given as “unsuccessful”.
In the case of CC[C@H](C)C[C@H](C)CCCCCCCCC(=O)N[C@H]1C[C@@H](O)[C@@H](NCCN)NC(=O)[C@@H]2[C@@H](O)CCN2C(=O)[C@H]([C@H](O)CCN)NC(=O)[C@H]([C@H](O)[C@@H](O)c2ccc(O)cc2)NC(=O)[C@@H]2C[C@@H](O)CN2C(=O)[C@H]([C@@H](C)O)NC1=O [caspofungin], the killing [4] is listed as at least 99%, the “activity against Candida biofilms” value [1] is listed as “showed activity” and the “effect of coating of biomaterials on subsequent biofilm development by Candida albicans” value ([5]; biomaterials coated with drug) is listed as “inhibitory effect”. For the same compound, the “effects on preformed Candida albicans biofilms” value ([5]; scanning electron microscopy and confocal scanning laser microscopy) was “altered the cellular morphology and the metabolic status”, the “minimum inhibitory concentration at which 50% of the sessile cells were inhibited” value ([5]; sessile Candida albicans cells) was “well within the drug's therapeutic range” and the “in vitro activity against sessile Candida albicans cells within biofilms” value ([5]; sessile cells within biofilms) was “potent in vitro activity”. The “activity against Candida spp.” value [6] was “active”.
In the case of [H]/N=C(\N/C(=N/[H])NCCCCCCNC(=N)NC(=N)Nc1ccc(Cl)cc1)Nc1ccc(Cl)cc1 [chlorhexidine], the “activity against Candida biofilms” value [1] is given as “resistant”.
In the case of OC(Cn1cncn1)(Cn1cncn1)c1ccc(F)cc1F [fluconazole], the “activity against Candida biofilms” value [1] is given as “resistant”.
For CCCCCOc1ccc(-c2cc(-c3ccc(C(=O)N[C@H]4C[C@@H](O)[C@@H](O)NC(=O)[C@@H]5[C@@H](O)[C@@H](C)CN5C(=O)[C@H]([C@H](O)CC(N)=O)NC(=O)[C@H]([C@H](O)[C@@H](O)c5ccc(O)c(OS(=O)(=O)O)c5)NC(=O)[C@@H]5C[C@@H](O)CN5C(=O)[C@H]([C@@H](C)O)NC4=O)cc3)no2)cc1 [micofungin] (X1-[Orn(4R-OH,5R-OH)]T[Hyp][hTyr(3S-OH,4S-OH,3'-OSO3H)][Gln(3R-OH)][Pro(3S-OH,4S-Me)]; lactam 1-C), the “activity against Candida biofilms” value [1] is listed as “showed activity”.
For C[C@@H]1[C@H](O)[C@@H](C)/C=C/C=C/CC/C=C/C=C/C=C/C=C/C(O[C@H]2O[C@H](C)[C@@H](O)[C@H](N)[C@@H]2O)CC2O[C@](O)(CC(O)C(O)CCC(O)CC(O)CC(O)CC(=O)O[C@H]1C)CC(O)C2C(=O)O (some centres unmarked) [nystatin], the “activity against Candida biofilms” value [1] is given as “resistant”, the “clearing of a feeding tube colonized with Candida” value [2] is given as “unsuccessful” and the “clearing the yeast crust from the inner surface of the tube” value [3] is given as “unsuccessful”.
In the case of C[C@@H](c1nc(-c2ccc(C#N)cc2)cs1)[C@](O)(Cn1cncn1)c1ccc(F)cc1F [ravuconazole], the “activity against Candida biofilms” value [1] is listed as “resistant”.
In the case of CN(C/C=C/C#CC(C)(C)C)Cc1cccc2ccccc12 [terbenafine], the “activity against Candida biofilms” value [1] is listed as “resistant”.
For C[C@@H](c1ncncc1F)[C@](O)(Cn1cncn1)c1ccc(F)cc1F [voriconazole], the “activity against Candida biofilms” value [1] is given as “resistant”.
For neomycin, the “prophylaxis of fungal colonization of feeding tubes” value [7] is listed as “failed”.
